# From patent US20100247551A1, “Use of Lipocalin 2 in the Regulation of Insulin Sensitivity” (priority 2006, published 2010)
# B1: recombinant Lcn2: exogenous recombinant lipocalin 2 protein (protein, UniProt P80188 21-198, looked up)
# Neutrophil …: QDSTSDLIPAPPLSKVPLQQNFQDNQFQGKWYVVGLAGNAILREDKDPQKMYATIYELKEDKSYNVTSVLFRKKKCDYWIRTFVPGCQPGEFTLGNIKSYPGLTSYLVRVVSTNYNQHAMVFFKKVSQNREYFKITLYGRTKELTSELKENFIRFSKSLGLPENHIVFPVPIDQCIDG
# What was measured:
# [1] = tested on: Lcn2 expression in 3T3-L1 adipocytes; assay: Lcn2 mRNA expression in mature 3T3-L1 adipocytes (Q-PCR); type: cell-based, mouse; conditions: Dex 1 μM or TNF 4 ng/μL (FIG. 1)
# Method: Mature 3T3-L1 adipocytes were treated with Dex (1 μM) or TNF (4 ng/μL) in the presence or absence of rosiglitazone (Rosi; 1 μM), and Lcn2 mRNA levels were measured by Q-PCR. Data presented as mean±SD, *p<0.05, ***p=0.005 relative to no Rosi.
# H4IIe hepatocytes = assay: Insulin resistance in H4IIe hepatocytes (glucose production, glucose-6-phosphatase mRNA expression); type: cell-based; conditions: liganded Lcn2 10 nM, with or without insulin 100 nM (FIG. 6)
# Method: FIG. 6A: Left, Glucose production induced by liganded Lcn2 (10 nM) or Dex (250 nM) in the presence or absence of insulin (100 nM). Right, effect of liganded Lcn2 (10 nM) or Dex (250 nM) on glucose-6-phosphatase mRNA expression in the presence or absence of insulin (100 nM). FIG. 6B: Dose response of liganded Lcn2 on glucose-6-phosphatase expression. FIG. 6C: Effect of apo-Lcn2 on glucose-6-phosphatase expression. For all panels, mean±SD, p<0.05, **p<0.01, n=3.
Molecule,Lcn2 expression [1],"insulin resistance (glucose production, glucose-6-phosphatase expression) (H4IIe hepatocytes)"
TNF-α,dramatically induced,
B1,,induces insulin resistance
